From article PMC5628445, “Four terpene synthases contribute to the generation of chemotypes in tea tree (Melaleuca alternifolia)” (BMC Plant Biology, 2017) come the findings set out here.

Experiment in all cases: radiometric assay, pentane extraction and scintillation counting; Lineweaver-Burk
Type in all cases: biochemical, Melaleuca alternifolia

Assay [1] deals with T1, MaTPS-SaH (sabinene hydrate synthase).
T1 construct: vector pASK-IBA7; expressed in E. coli, crude extract
As to conditions: 0.25 mM manganese; 30 °C; 15 min; 1–30 μM 3H-GPP; crude E. coli extract; labelled compound. From the text: radiometric assay, pentane extraction and scintillation counting; Lineweaver-Burk on MaTPS-SaH (sabinene hydrate synthase)

Assay [2] relates to T2, MaTPS-Cin (1,8-cineole synthase); MaTPS-CinA.
T2 construct: vector pASK-IBA7; expressed in E. coli, crude extract
The settings on record: 0.25 mM manganese; 30 °C; 10 min; 1–30 μM 3H-GPP; crude E. coli extract; labelled compound. From the text:
radiometric assay, pentane extraction and scintillation counting; Lineweaver-Burk on MaTPS-Cin (1,8-cineole synthase); MaTPS-CinA

Assay [3] has as its system T3, MaTPS-Tln (terpinolene synthase).
T3 construct: vector pASK-IBA7; expressed in E. coli, crude extract
The settings on record: 0.25 mM manganese; 30 °C; 15 min; 3H-GPP up to 100 μM; crude E. coli extract; labelled compound. From the text:
radiometric assay, pentane extraction and scintillation counting; Lineweaver-Burk on MaTPS-Tln (terpinolene synthase)

`CC(C)=CCC/C(C)=C/COP(=O)(O)OP(=O)(O)O` [GPP]: the figures for the Km in assay [1], in assay [2] and in assay [3] were 11 ± 2 µM, 31 ± 6.26 µM and 21 ± 3.18 µM, respectively.

As usually defined, the Km is the substrate concentration at which the rate is half of its maximum.
